GI50 and TGI data for eight compounds are collected here from PubChem BioAssay (NCI).

Some test systems named below: BT-549 breast; EKVX NSCLC; MALME-3M melanoma; MCF7 breast; NCI/ADR-RES ovarian; OVCAR-4 ovarian; OVCAR-5 ovarian; SK-MEL-5 melanoma; SN12C renal; UO-31 renal.
Holding throughout (test): NCI anticancer screen, dose series, 48 h

Where “and” joins values, the source holds several entries; their conditions need not be identical. Equal values may be shown once.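 Each compound was tested at five concentrations against cells in 96-well plates for 48 hours. GI50 is the concentration that inhibits growth by half. TGI denotes the concentration required for complete inhibition of growth.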

As to `COc1cc2c3c(n(CCCN)c(=O)c2cc1OC)-c1ccc([N+](=O)[O-])cc1C3=O`, the GI50 with BT-549 breast is 13.4 µM; in the assay on EKVX NSCLC, 20 µM; with MALME-3M melanoma, 16.7 µM; in the assay with MCF7 breast, 317 nM; with NCI/ADR-RES ovarian, 14000 nM; in the assay with OVCAR-4 ovarian it was 11.5 µM. The GI50 with OVCAR-5 ovarian was 15.9 µM; in the assay on SK-MEL-5 melanoma it was 5.23 µM; with SN12C renal it was 11.7 µM; in the assay with UO-31 renal it was 0.222 µM. The TGI in the assay on BT-549 breast is 28 µM; in the assay with EKVX NSCLC it was 40.7 µM; with MALME-3M melanoma it was 40.5 µM; in the assay on MCF7 breast, 1.96 µM; with NCI/ADR-RES ovarian it was > 100 µM; in the assay with OVCAR-4 ovarian, 33.7 µM. In addition, the TGI turned out to be 30.7 µM with OVCAR-5 ovarian, 19.5 µM in the assay with SK-MEL-5 melanoma, 27.6 µM in the assay with SN12C renal and 6.22 µM in the assay with UO-31 renal.
Turning to `COc1ccc(C(=O)Cn2c(C(=O)c3ccccc3)nc3ccccc32)cc1`, the GI50 was 5.9 µM in the assay with BT-549 breast; 7.21 µM with EKVX NSCLC; 1350 nM in the assay with MCF7 breast; 1490 nM with NCI/ADR-RES ovarian; 9.9 µM in the assay with OVCAR-4 ovarian; > 26.1 µM in the assay on OVCAR-5 ovarian. The GI50 in the assay with SK-MEL-5 melanoma was 2.06 µM; in the assay on SN12C renal, > 27.7 µM; in the assay with UO-31 renal, 13.3 µM. Moreover, the TGI with BT-549 breast, in the assay with EKVX NSCLC, in the assay with MALME-3M melanoma, in the assay on MCF7 breast, with OVCAR-4 ovarian and in the assay with OVCAR-5 ovarian was > 100 µM throughout. The TGI with SK-MEL-5 melanoma was 6.06 µM; in the assay on SN12C renal, > 100 µM; with UO-31 renal, > 100 µM.
In the case of `O=c1c2c([nH]c3nccn13)CCC2`, the TGI in the assay on BT-549 breast, in the assay on EKVX NSCLC, in the assay with MALME-3M melanoma, with MCF7 breast, with NCI/ADR-RES ovarian and in the assay on OVCAR-4 ovarian was > 10 µM each time. Besides, the TGI in the assay with OVCAR-5 ovarian, with SK-MEL-5 melanoma, in the assay with SN12C renal and with UO-31 renal was > 10 µM throughout.
On to `O=C1CCc2c(sc3[nH]c(=S)n(-c4cc(C(F)(F)F)cc(C(F)(F)F)c4)c(=O)c23)C1`, for which the GI50 in the assay with BT-549 breast is 0.325 µM; in the assay on EKVX NSCLC, 0.378 µM; in the assay with MALME-3M melanoma it was 0.462 µM; with MCF7 breast, 447 nM; with NCI/ADR-RES ovarian, 351 nM; in the assay on OVCAR-4 ovarian, 0.359 µM. The GI50 in the assay with OVCAR-5 ovarian was 0.438 µM; in the assay with SK-MEL-5 melanoma it was 0.217 µM; in the assay with SN12C renal, 0.352 µM; with UO-31 renal, 0.292 µM. For the same compound, the TGI with BT-549 breast turned out to be 1.99 µM; with EKVX NSCLC it was 5.14 µM; with MALME-3M melanoma it was 2.77 µM; in the assay on MCF7 breast, 16.4 µM; in the assay on NCI/ADR-RES ovarian it was 11.4 µM; in the assay with OVCAR-4 ovarian it was 1.72 µM. The TGI is 2.19 µM with OVCAR-5 ovarian, 0.465 µM with SK-MEL-5 melanoma, 11.8 µM with SN12C renal and 1.11 µM in the assay with UO-31 renal.
Consider `C1=C(c2ccccc2)C(N2CCOCC2)Oc2ccccc21` (configuration not stated), for which the TGI in the assay on BT-549 breast, in the assay with EKVX NSCLC, in the assay on MALME-3M melanoma, in the assay with MCF7 breast, with NCI/ADR-RES ovarian and in the assay on OVCAR-4 ovarian was > 100 µM throughout. Moreover, the TGI in the assay with OVCAR-5 ovarian, in the assay with SK-MEL-5 melanoma, with SN12C renal and in the assay on UO-31 renal was > 100 µM each time.
For the compound `OCCCCC#Cc1ccccc1C#Cc1ccc(O)cc1`, the GI50 is 14.1 µM in the assay with BT-549 breast; 17 µM in the assay on EKVX NSCLC; 20.9 µM with MALME-3M melanoma; 17400 nM in the assay on MCF7 breast; 17300 nM with NCI/ADR-RES ovarian; 15.8 µM in the assay with OVCAR-4 ovarian. Moreover, the GI50 in the assay with OVCAR-5 ovarian is 16.5 µM; in the assay on SK-MEL-5 melanoma it was 17.7 µM; in the assay with SN12C renal, 18.8 µM; in the assay with UO-31 renal it was 13.2 µM. Further, the TGI with BT-549 breast was determined as 28.8 µM; in the assay on EKVX NSCLC, 37 µM; in the assay with MALME-3M melanoma it was 43 µM; with MCF7 breast it was 49.2 µM; with NCI/ADR-RES ovarian it was 35.2 µM; in the assay with OVCAR-4 ovarian, 31.9 µM. The TGI is 35.2 µM with OVCAR-5 ovarian, 32.2 µM in the assay on SK-MEL-5 melanoma, 34.8 µM with SN12C renal and 26.7 µM in the assay with UO-31 renal.
For `C/C(=C\c1ccn(-c2ccccc2N)n1)[C@@H]1C[C@@H]2O[C@]2(C)CCC[C@H](C)[C@H](O)[C@@H](C)C(=O)C(C)(C)[C@@H](O)CC(=O)O1`, the GI50 was 0.116 µM in the assay with BT-549 breast; 0.684 µM in the assay on EKVX NSCLC; 0.127 µM in the assay on MALME-3M melanoma; 16.8 nM in the assay with MCF7 breast; 154 nM in the assay with NCI/ADR-RES ovarian; 0.392 µM in the assay on OVCAR-4 ovarian. In addition, the GI50 in the assay on OVCAR-5 ovarian was 0.102 µM; in the assay with SK-MEL-5 melanoma, 0.0286 µM; in the assay on SN12C renal it was 0.145 µM; in the assay on UO-31 renal, 0.302 µM. The TGI was > 13.1 µM in the assay with BT-549 breast; > 50 µM with EKVX NSCLC; > 50 µM in the assay on MALME-3M melanoma; > 50 µM with MCF7 breast; 7.21 µM in the assay with NCI/ADR-RES ovarian; > 50 µM with OVCAR-4 ovarian. Also, the TGI with OVCAR-5 ovarian was > 40.9 µM; with SK-MEL-5 melanoma, > 50 µM; in the assay on SN12C renal, > 50 µM; in the assay with UO-31 renal, > 50 µM.
For `O=C1NC(N/N=C\C(O)C(O)C(O)C(O)CO)=N/C1=C/c1ccccc1` (configuration not stated), the GI50 in the assay on BT-549 breast is 80.6 µM and 16.3 µM and > 100 µM; in the assay with EKVX NSCLC it was > 100 µM and 19.9 µM; with MALME-3M melanoma it was > 100 µM and 19.3 µM; in the assay on MCF7 breast it was 40300 nM and 13500 nM and > 61400 nM; in the assay with OVCAR-4 ovarian, 52.7 µM and 14.5 µM and > 100 µM; in the assay on OVCAR-5 ovarian, > 100 µM and 24.4 µM. The GI50 is 44.5 µM and 14.8 µM and > 100 µM in the assay on SK-MEL-5 melanoma; 75.4 µM and 15.5 µM and > 100 µM with SN12C renal; > 100 µM and 17.3 µM in the assay on UO-31 renal. For the same compound, the TGI in the assay on BT-549 breast is > 100 µM and 38.7 µM; in the assay with EKVX NSCLC, > 100 µM and 51 µM; in the assay with MALME-3M melanoma, > 100 µM and 37.6 µM; with MCF7 breast it was > 100 µM and 30.7 µM; in the assay on NCI/ADR-RES ovarian it was > 100 µM; with OVCAR-4 ovarian it was > 100 µM and 33.8 µM. Further, the TGI was > 100 µM and 44.9 µM in the assay on OVCAR-5 ovarian; > 100 µM and 29.2 µM in the assay on SK-MEL-5 melanoma; > 100 µM and 36.3 µM in the assay on SN12C renal; > 100 µM and 32.2 µM in the assay with UO-31 renal.
